In patent US11247990B1, “Bicyclic fused pyridine compounds as inhibitors of TAM kinases” (ARRAY BIOPHARMA INC., priority 2017, dated 2022) one finds IC50 data, which are given here for 20 compounds.

Structures can show the parent of a compound that is named as a salt.

In the first assay the target is GST-tagged recombinant human TYRO3 kinase domain (Homo sapiens (Human), UniProt Q06418). Nature of the assay: TYRO3 Enzyme Assay (LanthaScreen Eu Kinase Binding, TR-FRET). Particulars: averaged IC50. On the procedure: Compounds of Formula I were screened for their ability to inhibit TYRO3 kinase using Invitrogen's LanthaScreen™ Eu Kinase Binding technology. […] After a 60-minute incubation at 22° C., the reaction was measured using a PerkinElmer EnVision multimode plate reader via TR-FRET dual wavelength detection, and the percent of control (POC) calculated using a ratiometric emission factor. […] The POC values were fit to a 4 parameter logistic curve and the IC50 value is point where the curve crosses 50 POC.
Sequence of GST-tagged recombinant human TYRO3 kinase domain (Q06418 518-790): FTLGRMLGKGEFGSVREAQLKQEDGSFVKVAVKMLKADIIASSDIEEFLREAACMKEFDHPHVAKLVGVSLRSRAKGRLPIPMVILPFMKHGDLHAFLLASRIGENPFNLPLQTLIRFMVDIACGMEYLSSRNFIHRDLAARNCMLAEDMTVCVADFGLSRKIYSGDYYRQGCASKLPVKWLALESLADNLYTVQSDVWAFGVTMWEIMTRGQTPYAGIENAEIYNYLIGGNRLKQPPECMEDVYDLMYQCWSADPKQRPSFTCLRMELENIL
Take `CNc1cc2c(cn1)c(-c1cnn(C)c1)nn2[C@H]1CC[C@@H](Oc2nn(C)c(=O)cc2C)CC1` [Example 6, 2,5-dimethyl-6-(((1s,4s)-4-(3-(1-methyl-1H-pyrazol-4-yl)-6-(methylamino)-1H-pyrazolo[4,3-c]pyridin-1-yl)cyclohexyl)oxy)pyridazin-3(2H)-one]: the IC50 was in the range of 1000 to 10000 nM.
Take `CNc1cc2c(cn1)c(-c1cnn(C)c1)nn2[C@H]1CC[C@@H](Oc2nn(C)c(=O)c(C)c2C)CC1` [Example 8, 2,4,5-trimethyl-6-(((1s,4s)-4-(3-(1-methyl-1H-pyrazol-4-yl)-6-(methylamino)-1H-pyrazolo[4,3-c]pyridin-1-yl)cyclohexyl)oxy)pyridazin-3(2H)-one hydrochloride]: the IC50 is 1000 to 10000 nM.

The target in another assay is His-tagged recombinant human MER cytoplasmic domain (Homo sapiens (Human), UniProt Q12866). As to the kind of experiment: MER Enzyme Assay (LanthaScreen Eu Kinase Binding, TR-FRET). Particulars: averaged IC50. The protocol: Compounds of Formula I were screened for their ability to inhibit MER kinase using Invitrogen's LanthaScreen™ Eu Kinase Binding technology. […] After a 60-minute incubation at 22° C., the reaction was measured using a PerkinElmer EnVision multimode plate reader via TR-FRET dual wavelength detection, and the percent of control (POC) was calculated using a ratiometric emission factor. […] The POC values are fit to a 4 parameter logistic curve and the IC50 value is point where the curve crosses 50 POC.
Sequence of His-tagged recombinant human MER cytoplasmic domain (Q12866 527-999): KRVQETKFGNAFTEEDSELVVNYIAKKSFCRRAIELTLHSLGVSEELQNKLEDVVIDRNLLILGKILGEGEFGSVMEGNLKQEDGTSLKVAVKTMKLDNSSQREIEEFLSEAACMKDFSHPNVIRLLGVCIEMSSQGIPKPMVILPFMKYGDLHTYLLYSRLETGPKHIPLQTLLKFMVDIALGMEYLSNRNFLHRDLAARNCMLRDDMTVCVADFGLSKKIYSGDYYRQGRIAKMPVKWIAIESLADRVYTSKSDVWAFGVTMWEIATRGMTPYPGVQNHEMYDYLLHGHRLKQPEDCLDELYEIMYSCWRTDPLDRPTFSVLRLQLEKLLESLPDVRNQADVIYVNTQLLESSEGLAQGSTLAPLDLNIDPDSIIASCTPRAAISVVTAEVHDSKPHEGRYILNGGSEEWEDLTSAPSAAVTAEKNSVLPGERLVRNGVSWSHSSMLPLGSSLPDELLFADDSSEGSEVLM
`CNc1cc2c(cn1)c(-c1cnn(C)c1)nn2[C@H]1CC[C@@H](Oc2c(F)cccc2F)CC1` [Example 356, 1-((1s,4s)-4-(2,6-difluorophenoxy)cyclohexyl)-N-methyl-3-(1-methyl-1H-pyrazol-4-yl)-1H-pyrazolo[4,3-c]pyridin-6-amine]: the IC50 was < 10 nM.
In the case of `CNc1cc2c(cn1)c(-c1cnn(C)c1)nn2[C@H]1CC[C@@H](Oc2cccc(C)c2)CC1` [Example 366, N-methyl-3-(1-methyl-1H-pyrazol-4-yl)-1-((1s,4s)-4-(m-tolyloxy)cyclohexyl)-1H-pyrazolo[4,3-c]pyridin-6-amine], the IC50 was < 10 nM.
`CCNc1cc2c(cn1)c(-c1cnn(C)c1)nn2[C@H]1CC[C@@H](Oc2ccc(C(=O)NC)cc2C(F)(F)F)CC1` [Example 392, 4-(((1s,4s)-4-(6-(ethylamino)-3-(1-methyl-1H-pyrazol-4-yl)-1H-pyrazolo[4,3-c]pyridin-1-yl)cyclohexyl)oxy)-N-methyl-3-(trifluoromethyl)benzamide]: the IC50 was < 10 nM.
For `CCNc1cc2c(cn1)c(-c1ccn(C)c(=O)c1)nn2[C@H]1CC[C@@H](Oc2ccccc2F)CC1` [Example 398, 4-(6-(ethylamino)-1-((1s,4s)-4-(2-fluorophenoxy)cyclohexyl)-1H-pyrazolo[4,3-c]pyridin-3-yl)-1-methylpyridin-2(1H)-one], the IC50 was < 10 nM.
On to `CCNc1cc2c(cn1)c(-c1cnn(C(C)(C)C#N)c1)nn2[C@H]1CC[C@@H](Oc2ccccc2F)CC1` [Example 400, 2-(4-(6-(ethylamino)-1-((1s,4s)-4-(2-fluorophenoxy)cyclohexyl)-1H-pyrazolo[4,3-c]pyridin-3-yl)-1H-pyrazol-1-yl)-2-methylpropanenitrile], for which the IC50 is < 10 nM.
`CCNc1cc2c(cn1)c(-c1cn[nH]c1)nn2[C@H]1CC[C@@H](Oc2ccccc2F)CC1` [Example 401, N-ethyl-1-((1s,4s)-4-(2-fluorophenoxy)cyclohexyl)-3-(1H-pyrazol-4-yl)-1H-pyrazolo[4,3-c]pyridin-6-amine]: the IC50 was < 10 nM.
As for `CCNc1cc2c(cn1)c(-c1cnn(C(CO)CO)c1)nn2[C@H]1CC[C@@H](Oc2ccccc2F)CC1` [Example 411, 2-(4-(6-(ethylamino)-1-((1s,4s)-4-(2-fluorophenoxy)cyclohexyl)-1H-pyrazolo[4,3-c]pyridin-3-yl)-1H-pyrazol-1-yl)propane-1,3-diol], the IC50 is < 10 nM.
Consider `CCNc1cc2c(cn1)c(-c1cnn(C(CO)CO)c1)nn2[C@H]1CC[C@@H](Oc2cccc(F)c2)CC1` [Example 412, 2-(4-(6-(ethylamino)-1-((1s,4s)-4-(3-fluorophenoxy)cyclohexyl)-1H-pyrazolo[4,3-c]pyridin-3-yl)-1H-pyrazol-1-yl)propane-1,3-diol], for which the IC50 was < 10 nM.
With `CCNc1cc2c(cn1)c(-c1cnn(C(CO)CO)c1)nn2[C@H]1CC[C@@H](Oc2ccc(F)cc2)CC1` [Example 413], the IC50 is < 10 nM.
Regarding `CCNc1cc2c(cn1)c(-c1cnn(C(CO)CO)c1)nn2[C@H]1CC[C@@H](Oc2cc(F)ccc2F)CC1` [Example 416, 2-(4-(1-((1s,4s)-4-(2,5-difluorophenoxy)cyclohexyl)-6-(ethylamino)-1H-pyrazolo[4,3-c]pyridin-3-yl)-1H-pyrazol-1-yl)propane-1,3-diol], the IC50 is < 10 nM.
On to `CCNc1cc2c(cn1)c(-c1cnn(C(CO)CO)c1)nn2[C@H]1CC[C@@H](Oc2ccc(F)c(F)c2)CC1` [Example 418, 2-(4-(1-((1s,4s)-4-(3,4-difluorophenoxy)cyclohexyl)-6-(ethylamino)-1H-pyrazolo[4,3-c]pyridin-3-yl)-1H-pyrazol-1-yl)propane-1,3-diol], for which the IC50 is < 10 nM.
Same read-out and setting: with `CCNc1cc2c(cn1)c(-c1cnn(C3CCS(=O)(=O)C3)c1)nn2[C@H]1CC[C@@H](Oc2ccccc2F)CC1` (some centres unmarked) [Example 425, 3-(4-(6-(ethylamino)-1-((1s,4s)-4-(2-fluorophenoxy)cyclohexyl)-1H-pyrazolo[4,3-c]pyridin-3-yl)-1H-pyrazol-1-yl)tetrahydrothiophene 1,1-dioxide] the figure was < 10 nM; with `CCNc1cc2c(cn1)c(-c1cnn(C3CS(=O)(=O)C3)c1)nn2[C@H]1CC[C@@H](Oc2ccccc2F)CC1` [Example 426, 3-(4-(6-(ethylamino)-1-((1s,4s)-4-(2-fluorophenoxy)cyclohexyl)-1H-pyrazolo[4,3-c]pyridin-3-yl)-1H-pyrazol-1-yl)thietane 1,1-dioxide], < 10 nM; with `CCNc1cc2c(cn1)c(-c1cnn(C[C@H](O)[C@H](C)O)c1)nn2[C@H]1CC[C@@H](Oc2ccccc2F)CC1` [Example 430, (2S,3S)-1-(4-(6-(ethylamino)-1-((1s,4R)-4-(2-fluorophenoxy)cyclohexyl)-1H-pyrazolo[4,3-c]pyridin-3-yl)-1H-pyrazol-1-yl)butane-2,3-diol], < 10 nM.
`CCNc1cc2c(cn1)c(-c1cnn(C[C@@H](O)CO)c1)nn2[C@H]1CC[C@@H](Oc2cccc(C)c2F)CC1` [Example 438, (R)-3-(4-(6-(ethylamino)-1-((1s,4S)-4-(2-fluoro-3-methylphenoxy)cyclohexyl)-1H-pyrazolo[4,3-c]pyridin-3-yl)-1H-pyrazol-1-yl)propane-1,2 diol]: the IC50 is < 10 nM.
As for `CCNc1cc2c(cn1)c(-c1cnn(C[C@H](O)C(C)(C)O)c1)nn2[C@H]1CC[C@@H](Oc2cccc(Cl)c2)CC1` [Example 441, (S)-1-(4-(1-((1s,4R)-4-(3-chlorophenoxy)cyclohexyl)-6-(ethylainino)-1H-pyrazolo[4,3-c]pyridin-3-yl)-1H-pyrazol-1-yl)-3-methylbutane-2,3-diol], the IC50 was < 10 nM.
For `CCNc1cc2c(cn1)c(-c1cnn(C[C@@H](O)C(C)(C)O)c1)nn2[C@H]1CC[C@@H](Oc2cccc(Cl)c2)CC1` [Example 443, (R)-1-(4-(1-((1s,4S)-4-(3-chlorophenoxy)cyclohexyl)-6-(ethylamino)-1H-pyrazolo[4,3-c]pyridin-3-yl)-1H-pyrazol-1-yl)-3-methylbutane-2,3-diol], the IC50 was < 10 nM.
Regarding `CCNc1cc2c(cn1)n(-c1ccc(CN3CCN(C)CC3)cc1)nc2[C@H]1CC[C@@H](Oc2ccccc2F)CC1` [Example 482, N-ethyl-3-((1s,4s)-4-(2-fluorophenoxy)cyclohexyl)-1-(4-((4-methylpiperazin-1-yl)methyl)phenyl)-1H-pyrazolo[3,4-c]pyridin-5-amine], the IC50 is < 10 nM.
